What all share (format): cell-based
The target in assay [1] is T1, von Hippel-Lindau disease tumor suppressor/Bromodomain-containing protein 4 (Homo sapiens, UniProt O60885+P40337). The experiment in a line: PROTAC activity at BRD4/VHL in human MCF7 cells assessed as induction of BRD4 degradation by measuring residual activity at 1 uM incubated for 24 hrs in presence of 3 uM BRD4 based ligand ((4S)-6-(4-chlorophenyl)-4-(2-(ethylamino)-2-oxoethyl)-1-methyl4Hbenzo[f][1,2,4]triazolo [4,3-a][1,4]diazepin-8-yl)boronic acid by Western blot based Combinatorial Ubiquitination Real-time PROteolysis analysis.
T1 sequence (P40337 whole entry, looked up, other chains not shown): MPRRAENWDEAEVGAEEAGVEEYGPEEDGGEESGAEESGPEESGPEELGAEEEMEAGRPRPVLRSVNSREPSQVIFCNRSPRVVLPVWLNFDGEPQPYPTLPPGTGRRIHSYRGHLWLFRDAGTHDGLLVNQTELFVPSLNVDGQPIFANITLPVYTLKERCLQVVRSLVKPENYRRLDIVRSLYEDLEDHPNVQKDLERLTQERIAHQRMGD

Assay [2] deals with T1, von Hippel-Lindau disease tumor suppressor/Bromodomain-containing protein 4. Description: PROTAC activity at VHL/BRD4 in HEK293 cells assessed as induction of BRD4 degradation by measuring degradation rate at 0.3 uM measured every 15 mins for 24 hrs in presence of BRD4 based ligand ((4S)-6-(4-chlorophenyl)-4-(2-(ethylamino)-2-oxoethyl)-1-methyl4Hbenzo[f][1,2,4]triazolo [4,3-a][1,4]diazepin-8-yl)boronic acid by HiBiT based Combinatorial Ubiquitination Real-time PROteolysis analysis.

The target is the same in assay [3]. Description: PROTAC activity at BRD4/VHL in human MCF7 cells assessed as induction of BRD4 degradation by measuring residual activity at 30 nM incubated for 24 hrs in presence of 300 nM BRD4 based ligand ((4S)-6-(4-chlorophenyl)-4-(2-(ethylamino)-2-oxoethyl)-1-methyl4Hbenzo[f][1,2,4]triazolo [4,3-a][1,4]diazepin-8-yl)boronic acid by Western blot based Combinatorial Ubiquitination Real-time PROteolysis analysis.

For assay [4] the target is unchanged. Description: PROTAC activity at BRD4/VHL in human MCF7 cells assessed as induction of BRD4 degradation by measuring residual activity at 10 uM incubated for 24 hrs in presence of 10 uM BRD4 based ligand ((4S)-6-(4-chlorophenyl)-4-(2-(ethylamino)-2-oxoethyl)-1-methyl4Hbenzo[f][1,2,4]triazolo [4,3-a][1,4]diazepin-8-yl)boronic acid by Western blot based Combinatorial Ubiquitination Real-time PROteolysis analysis.

Assay [5] has the same target. The experiment in a line: PROTAC activity at VHL/BRD4 in HEK293 cells assessed as induction of BRD4 degradation by measuring degradation rate at 3 uM measured every 15 mins for 24 hrs in presence of BRD4 based ligand ((4S)-6-(4-chlorophenyl)-4-(2-(ethylamino)-2-oxoethyl)-1-methyl4Hbenzo[f][1,2,4]triazolo [4,3-a][1,4]diazepin-8-yl)boronic acid by HiBiT based Combinatorial Ubiquitination Real-time PROteolysis analysis.

For assay [6] the target is unchanged. The experiment in a line: PROTAC activity at BRD4/VHL in human MCF7 cells assessed as induction of BRD4 degradation by measuring residual activity at 1 uM incubated for 24 hrs in presence of BRD4 based ligand ((4S)-6-(4-chlorophenyl)-4-(2-(ethylamino)-2-oxoethyl)-1-methyl4Hbenzo[f][1,2,4]triazolo [4,3-a][1,4]diazepin-8-yl)boronic acid by Western blot based Combinatorial Ubiquitination Real-time PROteolysis analysis.

For assay [7] the target is unchanged. Description: PROTAC activity at BRD4/VHL in human MCF7 cells assessed as induction of BRD4 degradation by measuring residual activity at 100 nM incubated for 24 hrs in presence of 3 uM BRD4 based ligand ((4S)-6-(4-chlorophenyl)-4-(2-(ethylamino)-2-oxoethyl)-1-methyl4Hbenzo[f][1,2,4]triazolo [4,3-a][1,4]diazepin-8-yl)boronic acid by Western blot based Combinatorial Ubiquitination Real-time PROteolysis analysis.

For assay [8] the target is unchanged. Description: PROTAC activity at BRD4/VHL in human MCF7 cells assessed as induction of BRD4 degradation by measuring residual activity at 3 uM incubated for 24 hrs in presence of 1 uM BRD4 based ligand ((4S)-6-(4-chlorophenyl)-4-(2-(ethylamino)-2-oxoethyl)-1-methyl4Hbenzo[f][1,2,4]triazolo [4,3-a][1,4]diazepin-8-yl)boronic acid by Western blot based Combinatorial Ubiquitination Real-time PROteolysis analysis.

Assay [9] shares this target. The experiment in a line: PROTAC activity at VHL/BRD4 in HEK293 cells assessed as induction of BRD4 degradation by measuring maximal level of degradation at 0.3 uM measured every 15 mins for 24 hrs in presence of BRD4 based ligand ((4S)-6-(4-chlorophenyl)-4-(2-(ethylamino)-2-oxoethyl)-1-methyl4Hbenzo[f][1,2,4]triazolo [4,3-a][1,4]diazepin-8-yl)boronic acid by HiBiT based Combinatorial Ubiquitination Real-time PROteolysis analysis.

Assay [10] has the same target. The experiment in a line: PROTAC activity at BRD4/VHL in human MCF7 cells assessed as induction of BRD4 degradation by measuring residual activity at 300 nM incubated for 24 hrs in presence of 10 uM BRD4 based ligand ((4S)-6-(4-chlorophenyl)-4-(2-(ethylamino)-2-oxoethyl)-1-methyl4Hbenzo[f][1,2,4]triazolo [4,3-a][1,4]diazepin-8-yl)boronic acid by Western blot based Combinatorial Ubiquitination Real-time PROteolysis analysis.

The target is the same in assay [11]. Description: PROTAC activity at BRD4/VHL in human MCF7 cells assessed as induction of BRD4 degradation by measuring residual activity at 300 nM incubated for 24 hrs in presence of 100 nM BRD4 based ligand ((4S)-6-(4-chlorophenyl)-4-(2-(ethylamino)-2-oxoethyl)-1-methyl4Hbenzo[f][1,2,4]triazolo [4,3-a][1,4]diazepin-8-yl)boronic acid by Western blot based Combinatorial Ubiquitination Real-time PROteolysis analysis.

The target is the same in assay [12]. Description: PROTAC activity at BRD4/VHL in human MCF7 cells assessed as induction of BRD4 degradation by measuring residual activity at 100 nM incubated for 24 hrs in presence of 1 uM VHL based ligand (2S,4R)-1-((S)-2-(2,3-dihydroxybenzamido)-3,3-dimethylbutanoyl)-4-hydroxy-N-(4-(4-methylthiazol-5-yl)benzyl)pyrrolidine-2-carboxamide by Western blot based Combinatorial Ubiquitination Real-time PROteolysis analysis.

For assay [13] the target is unchanged. The experiment in a line: PROTAC activity at BRD4/VHL in human MCF7 cells assessed as induction of BRD4 degradation by measuring residual activity at 300 nM incubated for 24 hrs in presence of 100 nM VHL based ligand (2S,4R)-1-((S)-2-(2,3-dihydroxybenzamido)-3,3-dimethylbutanoyl)-4-hydroxy-N-(4-(4-methylthiazol-5-yl)benzyl)pyrrolidine-2-carboxamide by Western blot based Combinatorial Ubiquitination Real-time PROteolysis analysis.

Assay [14] has the same target. The experiment in a line: PROTAC activity at BRD4/VHL in human MCF7 cells assessed as reduction in BRD4 level incubated for 24 hrs in presence of […]-1-((S)-2-(2,3-dihydroxybenzamido)-3,3-dimethylbutanoyl)-4-hydroxy-N-(4-(4-methylthiazol-5-yl)benzyl)pyrrolidine-2-carboxamide by Western blot based Combinatorial Ubiquitination Real-time PROteolysis analysis.

The target is the same in assay [15]. Description: PROTAC activity at BRD4/VHL in human MCF7 cells assessed as induction of BRD4 degradation by measuring residual activity at 300 nM incubated for 24 hrs in presence of 1 uM VHL based ligand (2S,4R)-1-((S)-2-(2,3-dihydroxybenzamido)-3,3-dimethylbutanoyl)-4-hydroxy-N-(4-(4-methylthiazol-5-yl)benzyl)pyrrolidine-2-carboxamide by Western blot based Combinatorial Ubiquitination Real-time PROteolysis analysis.

SMILES strings stand for the structures. Activity calls are given as the source filed them. No cut-off for these calls is given here.

As to `Cc1ncsc1-c1ccc(CNC(=O)[C@@H]2C[C@@H](O)CN2C(=O)[C@@H](NC(=O)c2cccc(O)c2O)C(C)(C)C)cc1`, the Activity came to 22% in assay [1]; 0.144 h⁻¹ in assay [2]; 104% in assay [3]; 6% in assay [4]; 0.908 h⁻¹ in assay [5]; 64% in assay [6]. The Activity is 74% in assay [7], 32% in assay [8], 40% in assay [10] and 72% in assay [11]. For the same compound, the maximal effect (Emax) in [9] was determined as 47%.
As to `CCNC(=O)C[C@@H]1N=C(c2ccc(Cl)cc2)c2cc(B(O)O)ccc2-n2c(C)nnc21`, the Activity in assay [12] turned out to be 101%; in [13] it was 72%; in [15] it was 38%. For the same compound, in assay [14], the result was Active. For the same compound, the DC50 in [14] came to 358 nM.

Source of the values: ChEMBL document CHEMBL5543126, “Combinatorial Ubiquitination REal-time PROteolysis (CURE-PROs): A Modular Platform for Generating Reversible, Self-Assembling Bifunctional Targeted Degraders” (J Med Chem, 2024).
